Laboratory results published in patent US6160166A, “Phosphonated agents and their antiangiogenic and antitumorigenic use” (priority 1999, dated 2000).
“Also recorded” adds a separate entry of the source.

Key:
[1] = system: tyrosine specific phosphorylation of cellular proteins; conditions: Ghosh and Miller, 1993; cited from earlier work
Toxicity in vivo in mice = assay: Toxicity in vivo in mice; parameters: species or system mouse
Protocol: Mice were injected intraperitoneally with 0-150 μM/kg body weight of the compounds to be tested, every other day for a total of five injections. The animals were carefully observed daily and weighed every third day for 28 days after the last injection. After the 28-day observation period, the animals were euthanized, blood was collected through cardiac puncture and the following tissues were subjected to histological investigation: heart, lungs, liver, spleen, adrenal gland, kidney, sciatic nerve, soleus muscle and brain.
It is clear from studies so far that compounds with equipotent or greater antitumor activity but with substantially lower toxicity are of considerable potential therapeutic value as an antitumorigenic or antiangiogenic agent. […] The animals were carefully observed daily and weighed every third day for 28 days after the last injection. After the 28-day observation period, the animals were euthanized, blood was collected through cardiac puncture and the following tissues were kept for histological investigation: heart, lungs, liver, spleen, adrenal gland, kidney, sciatic nerve, soleus muscle and brain.

[2] = system: porcine pulmonary artery macrovascular endothelial cell; assay: Porcine pulmonary artery macrovascular endothelial cell growth, total protein and total DNA; assay type: cell-based
HMEC-1 = HMEC-1 cell growth, total protein and total DNA; assay type: cell-based, human
Protocol: Logarithmically growing HMEC-1 or HMVEC-d cells are seeded at 2×10^4 cells/well in six well plates (Falcon) containing 2 ml of MCDB-131 medium supplemented with 5% fetal bovine serum (FBS) (Hyclone). […] After removal of medium, the cell layer is washed twice with 1 ml of cold Hanks balanced salt solution and the cells are dislodged by trypsinization. The cells are collected in microcentrifuge tubes and washed twice with 1 ml of cold phosphate-buffered saline, and then 1 ml of cold 10% trichloroacetic acid are added. Acid precipitable radioactivity are collected on a glass fiber filter (Whatman Grade GF/C) and the radioactivity is determined in a liquid scintillation spectrometer (Packard).

[3] = system: microvascular endothelial cell migration; assay: Endothelial cell migration in vitro; assay type: cell-based
[4] = system: human microvascular endothelial cells; assay: Sensitivity of microvascular versus large vessel endothelium to inhibition; assay type: cell-based
[5] = system: binding of growth factors to their receptors; conditions: intact cells; cited from earlier work
[6] = system: MCF-7 human breast cancer cells; conditions: 48 hr (Foekens et al., 1993); cited from earlier work
PKC type I-III = conditions: Mahoney et al., 1990; read-out: ID50, PKC type I-III activity; cited from earlier work
p34cdc2 kinase [7] = conditions: literature; extracts from human small cell lung cancer cells; cited from earlier work
[8] = system: different cancer cell lines; assay: MTT cell proliferation, different cancer cell lines; assay type: cell-based, human; conditions: cancer cell lines in vitro
[9] = system: human dermal Microvascular endothelial cells; assay: Inhibition of bFGF-stimulated growth of human microvascular endothelial cells; assay type: cell-based; conditions: Homo sapiens, Endothelial cell; bFGF-stimulated; estimated from dose response curve
Protocol: Inhibition of cell growth was evaluated by measuring total protein and total DNA and the IC50 was estimated for each dose response curve.

[10] = system: fetal bovine aortic endothelial cells; conditions: Takano et al., 1994; cited from earlier work
[11] = system: chick chorioallantoic membrane (CAM); assay: Chick egg chorioallantoic membrane (CAM) assay, 11-day, established vessels; assay type: in vivo
Protocol: According to Ausprunk et al. (1974), capillary angiogenesis in the CAM is completed by day 11. Measurements of intercapillary distances are also consistent with the cessation of capillary growth after day 10. […] The implants were prepared as previously described by Gagliardi et al. (1992), implanted on day 11 and read on day 13.
Comparison of the inhibition of angiogenesis by 70 nmol of
suramin or a equimolar amount of a phosphonic acid agents in the
6-day and 11-day chick egg chorioallantoic (CAM) assay.

p34cdc2 kinase [12] = assay: p34cdc2 kinase activity and tyrosine phosphorylation; assay type: biochemical, human
Protocol: The effects of selected phosphonic acid agents on the p34cdc2-related kinase activity are carried out essentially as described by Bojanowski et al. (1994).
Cytoplasmic and nuclear extractions: 100 million cells (HMVEC-1 or HMEC-d) are washed twice with cold PBS and incubated in hypotonic phosphate buffer for 45 min on ice. The cells are then disrupted with a Dounce homogenizer and nuclei separated from the cytoplasmic fraction by centrifugation and extensive washing with hypotonic buffer. The nuclei are incubated for 30 min in the presence of 350 mM NaCl and the nonsoluble nuclear material removed by ultracentrifugation (20 min at 40000 rpm in TL 100 Beckman ultracentrifuge). The protein concentration are adjusted to 1.5 mg/ml, 20% of glycerol are added and the extracts stored at -20° C. […]
Reactions are stopped by placing the samples on ice and spotting 5 μl of the reaction mixture onto P81 phosphocellulose filters (Whatman). Filters are washed three times in 50 mM phosphoric acid, dried and the radioactivity retained on the filters are determined by liquid scintillation (Beckman).
Western blot: the precipitates are electrophoresed in 12.5% 12×12 cm ready-made polyacrylamide gels (Daichi Co.) and the proteins transferred to Immobilon PVDF membranes (Millipore). […] A Pharmacia LKB image master DTS chromoscan are used for band quantification (Bojanowski et al., 1994).

SMILES: Cc1ccc(C(=O)Nc2ccc(S(=O)(=O)O)c3cc(S(=O)(=O)O)cc(S(=O)(=O)O)c23)cc1NC(=O)c1cccc(NC(=O)Nc2cccc(C(=O)Nc3cc(C(=O)Nc4ccc(S(=O)(=O)O)c5cc(S(=O)(=O)O)cc(S(=O)(=O)O)c45)ccc3C)c2)c1 [suramin]
- effect on tyrosine specific phosphorylation [1]: increase the global tyrosine specific phosphorylation of cellular proteins in vivo
- reduction in body weight (Toxicity in vivo in mice; 150, 75 and 35 μM/kg body weight, injection period): 10-15%
- histological findings (Toxicity in vivo in mice; after 28-day observation, suramin or equimolar doses): dose-related frequency of lipoid degeneration of the zona reticularis of the adrenal gland and vacuolar changes in the proximal convoluted tubules of the renal tubular epithelium
- mortality (Toxicity in vivo in mice; i.p., every other day, five injections, suramin 150 μM/kg, agents up to 150 μM/kg): died before completion of the five injections
- body weight, in words (Toxicity in vivo in mice; i.p., five injections, 28 days observation): body weight stabilized but did not return to normal
- effect on total protein and total DNA ([2]; suramin higher than 250 μg/ml): significant dose-related reduction in total protein and total DNA
- effect on porcine pulmonary artery macrovascular endothelial cell growth ([2]; up to 100 μg/ml): did not have any significant inhibitory effect
- effect on cell growth (HMEC-1; 50-100 μg/ml): stimulatory effect on cell growth
- effect on total protein and total DNA (HMEC-1; suramin higher than 250 μg/ml, agents lower concentrations): significant dose-related reduction in total protein and total DNA
- effect on HMEC-1 cell growth (HMEC-1; up to 100 μg/ml): did not have any significant inhibitory effect
- minimal effective concentration ([3]; Endothelial cell, read-out: concentration inhibiting endothelial cell migration): > 150 µg/mL
- inhibition of migration, in words ([3]; number of cells migrated and distance traveled): significantly inhibited endothelial cell migration
- sensitivity of microvascular versus large vessel endothelium [4]: much more sensitive to inhibition
- effect on binding of growth factors to their receptors [5]: able to disrupt the binding of growth factors to their receptors in intact cells
- effect on cell cycle [6]: accumulation of MCF-7 human breast cancer cells in the G2-M phase of the cell cycle
- IC50 (PKC type I-III): 50 µM
- effect on purified cdc2 kinase / tyrosine phosphorylation (p34cdc2 kinase [7]): direct inhibitory effect on purified cdc2 kinase and also modulates the tyrosine phosphorylation of cdc2 kinase
- antiproliferative activity, in words [8]: inhibited cell proliferation in a dose-related manner
- IC50 [9]: 437 µM
- concentration inhibiting plasminogen activator activity induced by bFGF [10]: higher than 250 μg/ml
- 11-day CAM % Inhibition ([11]; 70 nmol or equimolar amount): 50%
- inhibitory activity in the 11-day CAM, in words ([11]; established vessels): showed antiangiogenic activity; also recorded: clearly affected both the growing and established vascular cells
- inhibition of p34cdc2 kinase (p34cdc2 kinase [12]): inhibits p34cdc2 kinase activity in a dose-related manner
- p34cdc2 kinase tyrosine phosphorylation / mobility (p34cdc2 kinase [12]; Western blot, anti-phosphotyrosine immunoblot): a difference in p34cdc2 kinase tyrosine phosphorylation
